The values that follow come from US10975119B2, “Selective cysteine protease inhibitors and uses thereof” (Genesis Technologies Limited, priority 2011, dated 2021).

Common to all, as to assay type: biochemical
For one assay, the target named is T1, Caspase-2 (Homo sapiens, UniProt P42575).
T1 construct: mixing the compounds with the respective active caspases; purchased BioVision K152-100
T1 sequence (P42575 170-325 limits assumed): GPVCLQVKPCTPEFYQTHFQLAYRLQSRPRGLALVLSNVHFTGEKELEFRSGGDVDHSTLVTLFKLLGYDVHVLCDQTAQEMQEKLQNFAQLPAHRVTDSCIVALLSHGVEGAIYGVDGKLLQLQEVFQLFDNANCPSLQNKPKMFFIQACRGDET
T1 sequence (P42575 334-452 limits assumed): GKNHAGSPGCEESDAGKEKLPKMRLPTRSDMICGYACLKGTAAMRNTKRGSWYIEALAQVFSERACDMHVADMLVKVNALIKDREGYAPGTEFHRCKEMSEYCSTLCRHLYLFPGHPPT
Briefly: Caspase-2 inhibitor screening assay (BioVision kit, VDVAD-AFC). Particulars: for inhibition at 10 µM: read-out: % Inhibition at 10 uM Casp2; for inhibition at 100 µM: read-out: % Inhibition at 100 uM Casp2; for IC50: read-out: IC50 Casp2. How it is done: The efficacy of an array of compounds as an inhibitor of the activity of Caspases 1 through 10 were assessed by using the respective Caspase Inhibitor Drug Screening Kits (Caspase-1 Catalog #: K151-100, Caspase-2 Catalog #: K152-100, Caspase-3 Catalog #: K153-100, Caspase-4 Catalog #: K154-100, Caspase-5 Catalog #: K155-100, Caspase-6 Catalog #: K156-100, Caspase-7 Catalog #: K157-100, Caspase-8 Catalog #: K158-100, Caspase-9 Catalog #: K159-100, Caspase-10 Catalog #: K160-100, BioVision) following the instructions of the manufacturer. […] Active caspases cleaved their respective synthetic substrates to release free AFC, which was then quantified by fluorometry.
Briefly, the compounds were first tested at 2 concentrations (10 uM and 100 uM final) to determine if there is a hit. […] Each condition was tested in duplicates. […] For some samples, a smaller range of concentrations was tested depending on the % Inhibition results at 10 uM and 100 uM. Results were summarized in Tables 2, 3, and 4 herein after. Table 2 represents the IC50 values (uM) of the test compounds as inhibitors of the activity of the various caspases.
(*) RFU (no inhibitor control)—RFU (compound at a specific concentration)
RFU (no inhibitor control)

In the next assay the target is T2, Caspase-4 (Homo sapiens, UniProt P49662).
T2 construct: mixing the compounds with the respective active caspases; purchased BioVision K154-100
T2 sequence (P49662 81-270 limits assumed): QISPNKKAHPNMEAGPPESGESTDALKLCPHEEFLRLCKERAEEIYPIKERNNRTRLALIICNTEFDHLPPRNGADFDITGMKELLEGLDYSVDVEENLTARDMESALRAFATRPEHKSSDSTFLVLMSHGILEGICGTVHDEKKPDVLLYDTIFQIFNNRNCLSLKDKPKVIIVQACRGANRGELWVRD
T2 sequence (P49662 290-377 limits assumed): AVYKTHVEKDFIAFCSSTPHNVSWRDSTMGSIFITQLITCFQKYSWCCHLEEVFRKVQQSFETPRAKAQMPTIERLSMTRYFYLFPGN
Briefly: Caspase-4 inhibitor screening assay (BioVision kit, LEVD-AFC). Particulars: for inhibition at 10 µM: read-out: % Inhibition at 10 uM Casp4; for inhibition at 100 µM: read-out: % Inhibition at 100 uM Casp4; for IC50: read-out: IC50 Casp4. The method, boiled down: (§1)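 Each caspase cleaved its own AFC-labelled peptide substrate, and released AFC was read by fluorescence. % inhibition came from RFU against an uninhibited control.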

A further assay has as its target T3, Caspase-1 (Homo sapiens, UniProt P29466).
T3 construct: mixing the compounds with the respective active caspases; purchased BioVision K151-100
T3 sequence (P29466 120-297 limits assumed): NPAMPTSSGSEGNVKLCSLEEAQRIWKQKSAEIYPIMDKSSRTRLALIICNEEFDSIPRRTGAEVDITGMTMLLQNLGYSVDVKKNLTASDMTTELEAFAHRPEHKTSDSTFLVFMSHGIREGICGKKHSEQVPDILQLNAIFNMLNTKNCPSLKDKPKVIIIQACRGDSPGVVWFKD
T3 sequence (P29466 317-404 limits assumed): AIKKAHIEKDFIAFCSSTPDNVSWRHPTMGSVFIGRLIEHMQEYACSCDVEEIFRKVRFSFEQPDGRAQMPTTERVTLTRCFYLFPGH
Briefly: Caspase-1 inhibitor screening assay (BioVision kit, YVAD-AFC). Particulars: for inhibition at 10 µM: read-out: % Inhibition at 10 uM Casp1; for inhibition at 100 µM: read-out: % Inhibition at 100 uM Casp1; for IC50: read-out: IC50 Casp1. The procedure, abridged: as §1

The target of the next assay is T4, Caspase-7 (Homo sapiens, UniProt P55210).
T4 construct: mixing the compounds with the respective active caspases; purchased BioVision K157-100
T4 sequence (P55210 24-198 limits assumed): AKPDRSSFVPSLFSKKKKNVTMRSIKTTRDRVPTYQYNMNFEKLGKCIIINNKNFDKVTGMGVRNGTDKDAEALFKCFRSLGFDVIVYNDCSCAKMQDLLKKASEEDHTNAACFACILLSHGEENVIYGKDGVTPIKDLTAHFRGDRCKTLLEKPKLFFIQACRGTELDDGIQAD
T4 sequence (P55210 207-303 limits assumed): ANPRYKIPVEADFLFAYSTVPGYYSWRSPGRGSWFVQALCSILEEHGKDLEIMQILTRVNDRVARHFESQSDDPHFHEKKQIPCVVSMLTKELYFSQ
Briefly: Caspase-7 inhibitor screening assay (BioVision kit, DEVD-AFC). Particulars: for inhibition at 10 µM: read-out: % Inhibition at 10 uM Casp7; for inhibition at 100 µM: read-out: % Inhibition at 100 uM Casp7; for IC50: read-out: IC50 Casp7. The procedure, abridged: as §1

For a further assay, the target named is T5, Caspase-8 (Homo sapiens, UniProt Q14790).
T5 construct: mixing the compounds with the respective active caspases; purchased BioVision K158-100
T5 sequence (Q14790 217-374 limits assumed): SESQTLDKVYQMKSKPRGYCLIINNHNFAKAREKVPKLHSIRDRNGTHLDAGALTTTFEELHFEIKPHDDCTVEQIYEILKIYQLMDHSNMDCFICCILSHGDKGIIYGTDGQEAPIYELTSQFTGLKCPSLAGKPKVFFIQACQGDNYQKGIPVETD
T5 sequence (Q14790 385-479 limits assumed): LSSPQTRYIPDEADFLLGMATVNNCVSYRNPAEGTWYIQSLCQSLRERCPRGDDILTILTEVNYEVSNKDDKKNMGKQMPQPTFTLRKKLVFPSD
Briefly: Caspase-8 inhibitor screening assay (BioVision kit, IETD-AFC). Particulars: for inhibition at 10 µM: read-out: % Inhibition at 10 uM Casp8; for inhibition at 100 µM: read-out: % Inhibition at 100 uM Casp8; for IC50: read-out: IC50 Casp8. The method, boiled down: as §1

The target of a further assay is T6, Caspase-9 (Homo sapiens, UniProt P55211).
T6 construct: purchased BioVision K159-100
T6 sequence (P55211 1-315 limits assumed): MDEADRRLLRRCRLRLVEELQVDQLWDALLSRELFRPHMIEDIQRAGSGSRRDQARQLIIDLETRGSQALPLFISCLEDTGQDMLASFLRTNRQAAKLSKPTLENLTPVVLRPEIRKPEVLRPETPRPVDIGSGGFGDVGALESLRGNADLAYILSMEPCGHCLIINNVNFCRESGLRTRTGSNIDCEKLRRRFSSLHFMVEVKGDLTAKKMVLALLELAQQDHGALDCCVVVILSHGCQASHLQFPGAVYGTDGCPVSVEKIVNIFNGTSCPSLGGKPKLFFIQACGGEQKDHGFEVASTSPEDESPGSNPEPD
T6 sequence (P55211 331-416 limits assumed): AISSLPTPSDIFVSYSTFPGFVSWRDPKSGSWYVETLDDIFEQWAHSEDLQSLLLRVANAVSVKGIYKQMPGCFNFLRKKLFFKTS
Briefly: Caspase-9 inhibitor screening assay (BioVision kit, LEHD-AFC). Particulars: for inhibition at 10 µM: read-out: % Inhibition at 10 uM Casp9; for inhibition at 100 µM: read-out: % Inhibition at 100 uM Casp9; for IC50: read-out: IC50 Casp9. The method, boiled down:
as §1

As usually defined, the inhibition is the percentage by which the read-out fell short of the control. One may read the IC50 as the concentration that gives 50% inhibition.

As to `CC(C)[C@H](NC(=O)[C@@H](NC(=O)[C@H](CC(=O)O)NC(=O)OCc1ccccc1)c1ccccc1)C(=O)N[C@H](/C=C/S(C)(=O)=O)CCC(=O)O` [Compound 84, Z-Asp-Phg-Val-Glu methyl vinyl sulfone], the inhibition at 10 µM on Caspase-2 came to 0%; on Caspase-4, 0%; on Caspase-1, 0%; at Caspase-7, 9%; on Caspase-8, 9%; at Caspase-9, 0%. Moreover, the inhibition at 100 µM came out at 3% on Caspase-2; 0% at Caspase-4; 0% on Caspase-1; 76% on Caspase-7; 10% on Caspase-8; 6% at Caspase-9. Further, the IC50 on Caspase-2 was above 100 µM; on Caspase-4 it was above 100 µM; on Caspase-1, above 100 µM; at Caspase-7, 49.9 µM; at Caspase-8, above 100 µM; on Caspase-9, above 100 µM.
Consider `CS(=O)(=O)/C=C/[C@H](CC(=O)O)NC(=O)[C@H]1CCC(=O)N1` [Compound 24, (2-Pyrrolidinone-5-carbonyl)-Asp methyl vinyl sulfone], for which the inhibition at 10 µM stood at 0% at Caspase-2; 1% at Caspase-4; 3% on Caspase-1; 1% on Caspase-7; 0% on Caspase-8; 0% on Caspase-9. For the same compound, the inhibition at 100 µM was found to be 0% at Caspase-2; 0% at Caspase-4; 10% at Caspase-1; 0% at Caspase-7; 0% on Caspase-8; 0% at Caspase-9. In addition, the IC50 on Caspase-2, at Caspase-4, at Caspase-1, on Caspase-7, at Caspase-8 and at Caspase-9 was above 100 µM in each case.
As to `CC(C)(C)[C@H](NC(=O)c1ccc2ncccc2n1)C(=O)N1CCCC1C(=O)N[C@H](/C=C/S(C)(=O)=O)CC(=O)O` (stereo in doubt) [Compound 8, (1,5-Naphthyridine-2-carbonyl)-t-Leu-Pro-Asp methyl vinyl sulfone], the inhibition at 10 µM was 3% at Caspase-2; 88% on Caspase-4; 91% on Caspase-1; 0% on Caspase-7; 8% on Caspase-8; 24% on Caspase-9. Further, the inhibition at 100 µM turned out to be 5% on Caspase-2; 100% at Caspase-4; 100% at Caspase-1; 0% at Caspase-7; 23% on Caspase-8; 73% at Caspase-9. The IC50 on Caspase-2 was above 100 µM; on Caspase-4, 0.63 µM; on Caspase-1, 0.88 µM; on Caspase-7, above 100 µM; on Caspase-8, above 100 µM; at Caspase-9 it was 47.3 µM.
Consider `CCOC(=O)/C=C/[C@H](CC(=O)O)NC(=O)[C@@H](NC(=O)[C@H](CCC(=O)O)NC(=O)[C@@H](NC(=O)OCc1ccccc1)C(C)C)C(C)CC` (stereo partly drawn) [Compound 124, Z-Val-Glu-Ile-Asp-Ethyl Vinyl ester], for which the IC50 at Caspase-2 is 10 µM; on Caspase-4, 1.27 µM; at Caspase-1, 0.78 µM; at Caspase-7, above 100 µM; on Caspase-8, 0.19 µM; at Caspase-9, 7.5 µM.
Turning to `CCC(C)[C@H](NC(=O)[C@H](CCC(=O)O)NC(=O)[C@@H](NC(=O)OCc1ccccc1)C(C)C)C(=O)N[C@H](/C=C/S(C)(=O)=O)CC(=O)O` (stereo partly drawn) [Compound 38, Z-Val-Glu-Ile-Asp-methyl vinyl sulfone], the inhibition at 10 µM was 2% on Caspase-2; 100% on Caspase-4; 81% on Caspase-1; 0% at Caspase-7; 97% on Caspase-8; 82% at Caspase-9. Besides, the inhibition at 100 µM on Caspase-2 was 4%; on Caspase-4, 100%; at Caspase-1, 97%; on Caspase-7, 31%; on Caspase-8, 100%; on Caspase-9, 97%. For the same compound, the IC50 on Caspase-4 was 0.375 µM; at Caspase-1, 2.7 µM; at Caspase-8, 0.66 µM; at Caspase-9, 0.79 µM.
Regarding `CC(C)[C@H](NC(=O)[C@@H](N)Cc1ccc(O)cc1)C(=O)N[C@@H](C)C(=O)N[C@H](/C=C/S(C)(=O)=O)CC(=O)O` [Compound 42, Tyr-Val-Ala-Asp methyl vinyl sulfone], the inhibition at 10 µM on Caspase-2 came to 0%; on Caspase-4, 28%; at Caspase-1 it was 26%; on Caspase-7, 0%; on Caspase-8, 12%; on Caspase-9, 0%. For the same compound, the inhibition at 100 µM at Caspase-2 worked out at 0%; on Caspase-4, 100%; at Caspase-1, 72%; at Caspase-7, 0%; at Caspase-8, 30%; at Caspase-9 it was 26%. In addition, the IC50 is above 100 µM on Caspase-2; 17.1 µM at Caspase-4; 33.8 µM on Caspase-1; above 100 µM on Caspase-7; above 100 µM at Caspase-8; above 100 µM at Caspase-9.
